System: HEK293
Assay: Inhibition of Wnt/beta-catenin signaling pathway in human HEK293 cells at 20 uM after 24 hrs by dual luciferase reporter gene assay relative to vehicle-treated control
Details: HEK293, 24 h

Going from `c1cc2c(cc1[C@H]1OC[C@H]3[C@@H]1CO[C@@H]3c1ccc3c(c1)OCO3)OCO2` [SESAMIN] to `c1cc2c(cc1O[C@H]1OC[C@H]3[C@@H]1CO[C@@H]3c1ccc3c(c1)OCO3)OCO2` [SESAMOLIN], the inhibition at 20 µM falls from 39.7% to 11.6%.

First: COc1ccc([C@@H]2OC[C@H]3[C@@H]2CO[C@@H]3c2ccc3c(c2)OCO3)cc1OC [FARGESIN]
Second: COc1cc([C@@H]2OC[C@@H]3[C@H]2CO[C@@H]3c2ccc(OC)c(OC)c2)ccc1O
The inhibition at 20 µM of the first is higher: 29.8% for the first, 24.7% for the second.

Compared with `COc1cc2c(c(OC)c1OC)-c1c(cc(OC)c(OC)c1OC)C[C@](C)(O)[C@@H](C)C2` [SCHIZANDRIN], `COc1cc2c(c(OC)c1OC)-c1c(cc3c(c1OC)OCO3)C[C@H](C)[C@](C)(O)C2` [GOMISIN A] is higher in inhibition at 20 µM: 6.2% for the first, 38.2% for the second.

Going from `COc1cc([C@@H]2Oc3c(OC)cc(CCCO[C@@H]4O[C@H](CO)[C@@H](O)[C@H](O)[C@H]4O)cc3[C@H]2CO)ccc1O` to `COc1cc([C@@H]2Oc3c(OC)cc(CCCO)cc3[C@H]2CO)ccc1O` [DIHYDRODEHYDRODICONIFERYL ALCOHOL], the inhibition at 20 µM rises from -14.8% to 31.4%.

Going from `COc1cc([C@H]2OC[C@H]3[C@@H]2CO[C@@H]3c2ccc3c(c2)OCO3)ccc1O[C@@H]1O[C@H](CO)[C@@H](O)[C@H](O)[C@H]1O` [SIMPLEXOSIDE] to `COc1cc(C[C@H]2COC(=O)[C@@H]2Cc2ccc(O[C@@H]3O[C@H](CO)[C@@H](O)[C@H](O)[C@H]3O)c(OC)c2)ccc1O` [MATAIRESINOSIDE], the inhibition at 20 µM rises from -13.6% to 9.3%.

Going from `O=C/C=C/c1ccc2c(c1)O[C@@H](CO)[C@H](c1ccc(O)c(O)c1)O2` [AMERICANIN A] to `CC(=O)/C=C/C=C/c1ccc2c(c1)O[C@@H](CO)[C@H](c1ccc(O)c(O)c1)O2`, the inhibition at 20 µM falls from 55% to 0.6%.

Going from `O=C(/C=C/c1ccc(O)c(O)c1)O[C@H](Cc1ccc(O)c(O)c1)C(=O)O` [ROSMARINIC ACID] to `COC(=O)[C@@H](Cc1ccc(O)c(O)c1)OC(=O)/C=C/c1ccc(O)c2c1[C@@H](C(=O)O[C@H](Cc1ccc(O)c(O)c1)C(=O)OC)[C@H](c1ccc(O)c(O)c1)O2`, the inhibition at 20 µM falls from 27% to 10.5%.

First: COc1cc2c(c(OC)c1OC)-c1c(cc3c(c1OC)OCO3)C[C@H](C)[C@H](C)C2 [WUWEIZISU B]
Second: C/C=C(\C)C(=O)O[C@H]1c2cc(OC)c(OC)c(OC)c2-c2c(cc3c(c2O)OCO3)C[C@H](C)[C@]1(C)O [SCHISANTHERIN C]
The inhibition at 20 µM of the first is lower: -17.8% for the first, -9.3% for the second.

Going from `O[C@]12CO[C@H](c3ccc4c(c3)OCO4)[C@H]1CO[C@@H]2c1ccc2c(c1)OCO2` to `O=C/C=C/c1ccc2c(c1)OC(c1ccc3c(c1)OC(CO)C(c1ccc(O)c(O)c1)O3)C(CO)O2` (stereo not drawn), the inhibition at 20 µM rises from -3.5% to 69.9%.

Compared with `COc1cc(C2Oc3cc([C@H]4Oc5cc(O)cc(O)c5C(=O)[C@@H]4O)ccc3OC2CO)ccc1O` (stereo partly drawn) [SILIBININ], `COc1cc([C@H]2c3c(cc(O)c(O)c3OC)C[C@@H](CO)[C@@H]2CO)ccc1O` is lower in inhibition at 20 µM: 8.3% for the first, 2.6% for the second.

First: C=CCc1ccc(O)c(-c2ccc(O)c(CC=C)c2)c1 [HONOKIOL]
Second: C=CCc1ccc(O)c(-c2cc(CC=C)ccc2O)c1 [MAGNOLOL]
The inhibition at 20 µM of the first is lower: 59.3% for the first, 72.4% for the second.

First: COc1ccc([C@@H]2OC[C@@H]3[C@H]2CO[C@H]3c2ccc(OC)c(OC)c2)cc1OC [EUDESMINE]
Second: COc1cc([C@H]2OC[C@@H]3[C@@H]2CO[C@H]3c2cc(OC)c(O[C@@H]3O[C@H](CO)[C@@H](O)[C@H](O)[C@H]3O)c(OC)c2)cc(OC)c1O[C@@H]1O[C@H](CO)[C@@H](O)[C@H](O)[C@H]1O
The inhibition at 20 µM of the first is higher: 26.3% for the first, 9.8% for the second.

Going from `Oc1ccc2c(c1)OCO2` to `C/C=C/c1cc(OC)c2c(c1)C(C)C(c1ccc(O)c(OC)c1)O2` (stereo not drawn) [DEHRODIISOEUGENOL], the inhibition at 20 µM rises from 10.1% to 28%.

Compared with `COc1cc(CC(CO)c2cc(/C=C/CO)cc(OC)c2O[C@@H]2O[C@H](CO)[C@@H](O)[C@H](O)[C@H]2O)ccc1O` (stereo partly drawn), `COc1cc([C@@H](O)[C@@H](CO)Oc2ccc(CCCO)cc2O)ccc1O` is lower in inhibition at 20 µM: 11.4% for the first, -30.7% for the second.

Reference: ChEMBL document CHEMBL2440042, “Anti-proliferative activity of hydnocarpin, a natural lignan, is associated with the suppression of Wnt/β-catenin signaling pathway in colon cancer cells” (Bioorg Med Chem Lett, 2013)
